# Values of other authors, collected in patent US20170266293A1, “METHODS OF TREATING CANCERS WITH THERAPEUTIC NANOPARTICLES” (PFIZER INC., priority 2011, published 2017).
# Test system: cholangiocarcinoma
# Settings: previous studies, Pazdur, Am. J. Clin. Oncol. 1999
compound,measurement,value
CC(=O)O[C@@]12CO[C@@H]1C[C@H](O)[C@@]1(C)C(=O)[C@H](O)C3=C(C)[C@@H](OC(=O)[C@H](O)[C@@H](NC(=O)OC(C)(C)C)c4ccccc4)C[C@@](O)([C@@H](OC(=O)c4ccccc4)[C@H]21)C3(C)C [docetaxel],Efficacy for the treatment of cholangiocarcinoma,ineffective
